Where a name gives a salt, the structure may show the parent alone. Read-outs that look alike come from different tables or passages of the source.
Experiments:
[1] = tested on: T. cruzi intracellular amastigotes; design: method as in PMID 27120069; conditions: treatment for 48 hours; cited from earlier work
[2] = tested on: T. cruzi intracellular amastigotes; test: Image-based assay of the number of T. cruzi infected cells (intracellular amastigotes in 3T3 host cells); type: cell-based, Trypanosoma cruzi; conditions: 2 and 4 hour exposures; 73 μM
[3] = tested on: T. cruzi intracellular amastigotes; test: as above; type: cell-based, Trypanosoma cruzi; conditions: for inhibition at 183 µM / IC50 / Emax: Trypanosoma cruzi
Description: (§1) Parasites and host cells were maintained as outlined previously. Briefly, host 3T3 fibroblasts (ATCC, CCL-92) were grown in RPMI medium (Thermo Fisher Scientific, USA) with no phenol red, supplemented with 10% FBS (Thermo Fisher Scientific, USA) and incubated at 37°C in 5% CO2. Host cells were harvested at 70% confluency and were split every 2–3 days in 175 cm^2 flasks. 3T3 cells were cultured up to passage 7 as contact inhibition was reduced or lost at higher passages. Prior to infection with T. cruzi trypomastigotes, host cells were seeded at 1.2 x 10^6 cells in 75 cm^2 or 4 x 10^5 cells in 25 cm^2 flasks and grown for 24 hours before parasite addition. Parasites were added at a multiplicity of infection (MOI) of 10:1 and incubated for 24 hours before non-infected trypomastigotes were washed off the host cell bed with PBS supplemented with Ca^2+ and Mg^2+ (Thermo Fisher Scientific, USA). Incubation was continued for a further 3 days, until tissue culture trypomastigotes began to egress from host cells. Egressed parasites were used for assays or to continue the infective life cycle in vitro.
(§2) The activity of the nucleoside analogues against T. cruzi intracellular amastigotes following 24, 48 hours exposure and compound wash off, was determined using image-based techniques as previously described. Briefly, 14-point serial dilutions of the compounds in 100% DMSO were prepared and then further diluted in sterile water at a ratio of 1:21 compound: water. Five microliters of the diluted compounds were added to wells of T. cruzi infected host cells, using a MiniTrak compound handling device (Perkin Elmer, USA) with final concentrations in the plate ranging from 183 μM to 4.6 x 10^−4 μM. All experiments were performed with two separate biological replicates.
IC50 values for inhibitory activity of both the nucleoside analogues tested as DNA probes and known inhibitors tested to determine their effect on replication of T. cruzi were calculated in GraphPad Prism 5, using sigmoidal dose response with variable slope. […] The p-value for difference in the % activity at Emax concentrations for compounds with known activity (EdU identified parasites, compared to Hoechst identified parasites) against T. cruzi was determined using GraphPad Prism 5, using an unpaired student’s t-test. […] The Emax for each compound was at least two data points in from the beginning of the plateau of activity in the IC50 curve, as previously described.

HEK293 cells = test: Redox-based assay to assess HEK293 viability; type: cell-based, human; conditions: 48 hours exposure; highest test concentration 87 μM; EdU value estimated, relative to Emax plateau of 57%
Description: To determine the effect of the nucleoside analogues against a replicating mammalian cell line, analogues were tested against HEK293 cells, utilising a REDOX-based metabolic assay to assess cell viability as previously described. […] Experiments were performed over two biological replicates.

T. cruzi amastigote DNA = test: Incorporation of pyrimidine nucleoside analogues into T. cruzi amastigote DNA (click chemistry, colocalisation with Hoechst); type: cell-based, Trypanosoma cruzi
Description: T. cruzi infected 3T3 fibroblasts were initially exposed to nucleoside analogues for 48 hours at concentrations ranging from 73 μM to 1.8 x10^-4 μM. Host cell, parasite and compound additions were carried out as previously described. Cells were then stained using a click chemistry azide cocktail, followed by Hoechst to identify nuclear material, as previously reported. The freshly prepared azide cocktail consisted of a final concentration of 5 μM of Alexa Fluor 488 azide (Thermo Fisher Scientific, USA), 1 mM copper sulfate (Sigma Aldrich, USA) and 100 mM sodium ascorbate (Sigma Aldrich, USA), in DPBS. Wells were imaged on an Opera image-based reader (Perkin Elmer, USA) at 20x magnification with 405 nm (defined as Hoechst channel) and 488 nm (defined as Alexa 488 channel) lasers using filter sets/bandwidth (emission) of 450/50 nm and 540/75 nm, respectively. To determine nucleoside analogue incorporation into T. cruzi amastigote DNA, a script was developed utilising the Columbus (PerkinElmer, USA) image-based analysis and data handling platform (CHEMICAL LABEL INCORPORATION SCRIPT). Nucleoside analogues were also tested for DNA incorporation following 2, 4 and 24 hours exposure, at the same concentrations. All experiments were performed in duplicate. The colocalisation of nucleoside analogues and Hoechst (replicating parasites) at each time point (48, 4 and 2 hours) was compared using GraphPad Prism 5.
A CHEMICAL LABEL INCORPORATION SCRIPT developed in Columbus firstly identified Hoechst stained parasites within host cells by spot analysis, utilizing the same building block analysis as we had previously developed to determine T. cruzi infected cells. The physical definition of amastigote DNA was identified by Hoechst, with the only modification being that as there was no cytoplasmic marker, thus segmentation borders in the Hoechst channel were applied, which effectively separated host cells (Fig 2). Further building blocks were added to calculate the intensity of Alexa Fluor 488 within the spots identified by Hoechst, in infected cells. This script was first applied to images to determine the mean fluorescence intensity in the Alexa 488 channel of Hoechst identified parasites, without the addition of the chemical label. The mean plus three times the standard deviation of this intensity was used to define values above background, thus the minimum intensity above background required to identify parasite DNA which successfully incorporated the chemical label. An input box was incorporated into the script, in which this minimum intensity above background was entered. Parameters of the developed script, “CHEMICAL LABEL INCORPORATION” are shown in S1 Table.
• Number of T. cruzi amastigote infected cells (≥5 parasites per cell, identified with Hoechst). • Number of Hoechst identified T. cruzi parasites (in infected cells). • Number of parasites incorporating chemical label (T. cruzi parasites with Alexa 488 intensity above background, in infected cells). • % chemical label incorporation. Alexa 488 spots in infected cells (above background) NO / Hoechst spots in infected cells NO *100 = Percentage colocalisation; where NO = number of objects. • Number of host cells.

3T3 cells = test: Image-based assay, effect on 3T3 host cells; type: cell-based; conditions: for Host cell 3T3 IC50 value 48 h: highest test concentration 183 μM
Description: as §1
as §2, with “The activity of the nucleoside analogues against T. cruzi intracellular amastigotes following 24, 48 hours exposure and compound wash off, was determined using image-based techniques as previously described.” left out
Image analysis was performed with a script developed in Columbus software (CHEMICAL LABEL INCORPORATION SCRIPT). Control wells were also imaged at an increased, 60x magnification to show the distribution of staining and the structure of the parasites within host cells. Eight background control wells consisted of infected host cells, fixed and exposed to Hoechst and the click chemistry cocktail, without the addition of the chemical probe EdU. […] The percentage activity of compounds against parasite number / infected cells (identified with Hoechst) was calculated against a positive control of 12 μM of NFX for the parasite and 30 μM of PURO the host cells; and a negative control of 0.47% DMSO. All images taken were not modified and were taken on an Opera, confocal image-based reader.

[4] = tested on: T. cruzi intracellular amastigotes; test: Detection of T. cruzi replication following exposure to inhibitors (EdU incorporation vs Hoechst); type: cell-based, Trypanosoma cruzi; conditions: Trypanosoma cruzi; for IC50: 48 hours exposure, mean ± SD
Description: The addition of host cells, parasites and compounds were as described for the T. cruzi image based method previously reported. […] Addition of nuclear and cytoplasmic dyes was undertaken as previously reported and images captured on an Opera confocal image-based system at 20x magnification. Image analysis was performed with a script developed in Columbus software (CHEMICAL LABEL INCORPORATION SCRIPT). Control wells were also imaged at an increased, 60x magnification to show the distribution of staining and the structure of the parasites within host cells. Eight background control wells consisted of infected host cells, fixed and exposed to Hoechst and the click chemistry cocktail, without the addition of the chemical probe EdU. […] All images taken were not modified and were taken on an Opera, confocal image-based reader.

[5] = 24 hours exposure, highest test concentration 183 μM, read-out: T. cruzi 24 IC50 value
[6] = 24 hours exposure, read-out: T. cruzi 24 relative Emax (in brackets) (converted)
[7] = 48 hours incubation, highest test concentration 183 μM, read-out: T. cruzi 48 IC50 value
[8] = 48 hours incubation, read-out: T. cruzi 48 relative Emax (in brackets) (converted)

Structure (SMILES): CN1CCC[C@@H]1CCO[C@](C)(c1ccccc1)c1ccc(Cl)cc1 [CF, clemastine fumarate]
- T. cruzi infected cells, identified with Hoechst, remaining [1]: 3%

Structure (SMILES): C#Cc1cn([C@H]2C[C@H](O)[C@@H](CO)O2)c(=O)nc1N [EdC, 5-ethynyl-2′-deoxy-cytidine]
- activity against T. cruzi amastigote growth after short exposure [2]: less than 20%
- SI (selectivity index to T. cruzi intracellular amastigotes in relation to HEK293 cells) ([3]; 48 hours exposure): > 26
- inhibition at 183 µM ([3]; at 183 μM, 48 hours incubation, wash off, further 72 hours, read-out: T. cruzi Wash off percentage inhibition at the highest test concentration): 90%
- IC50 [3, 5]: 12.5 ± 2 µM
- Emax [3, 6]: 69%
- IC50 [3, 7]: 7.1 ± 3.7 µM
- Emax [3, 8]: 87%
- HEK293 IC50 value (HEK293 cells): NA (NA = ≤50% activity at the highest concentration tested and an IC50 value could not be determined)
- % of parasites with incorporation (T. cruzi amastigote DNA; 2 hours, 37 μM): 71 ± 2.9%
- % of parasites with incorporation (T. cruzi amastigote DNA; 4 hours, 7.3 μM): 84 ± 3.5%
- incorporation into T. cruzi DNA following 48 hours incubation (in words) (T. cruzi amastigote DNA): incorporated
- % of cells that incorporated the DNA chemical label (T. cruzi amastigote DNA; 48 hours, 0.73 μM): 89 ± 2.7%
- activity against host cells after short exposure (3T3 cells; 2 and 4 hour exposures, 73 μM): less than 20%
- Host cell 3T3 IC50 value 48 h (3T3 cells): NA (NA = ≤50% activity at the highest concentration tested and an IC50 value could not be determined)
- activity against 3T3 cells in the image-based assay (3T3 cells; 48 hours): < 20%

Structure (SMILES): C#Cc1cn([C@@H]2O[C@H](CO)[C@@H](O)[C@@H]2I)c(=O)[nH]c1=O [I-ara-EdU, (2′S)-2′-deoxy-5-ethynyl-2′-iodo-uridine]
- T. cruzi 24 IC50 value ([3]; 24 hours exposure, highest test concentration 183 μM): NA (NA = ≤50% activity at the highest concentration tested and an IC50 value could not be determined)
- T. cruzi Wash off IC50 value ([3]; 48 hours incubation, compound wash off, further 72 hours without compound, highest test concentration 183 μM): NA (NA = ≤50% activity at the highest concentration tested and an IC50 value could not be determined)
- T. cruzi 48 IC50 value ([3]; 48 hours incubation, highest test concentration 183 μM): NA (NA = ≤50% activity at the highest concentration tested and an IC50 value could not be determined)
- inhibition at 183 µM ([3]; 48 h, 183 μM, 48 hours incubation, read-out: inhibition of T. cruzi growth at highest test concentration): ≤ 50%
- HEK293 IC50 value (HEK293 cells): NA (NA = ≤50% activity at the highest concentration tested and an IC50 value could not be determined)
- incorporation into T. cruzi DNA following 48 hours incubation (in words) (T. cruzi amastigote DNA): did not
- incorporation (no incorporation observed) (T. cruzi amastigote DNA; 48 hours, concentrations up to a maximum of 73 μM): < 20%
- Host cell 3T3 IC50 value 48 h (3T3 cells): NA (NA = ≤50% activity at the highest concentration tested and an IC50 value could not be determined)

Structure (SMILES): CC1CS(=O)(=O)CCN1/N=C/c1ccc([N+](=O)[O-])o1 (centres unmarked) [NFX, nifurtimox]
- inhibition at 63 µM ([4]; 2 h, read-out: mean inhibition of incorporation of EdU into the parasite DNA): 57 ± 9.1%
- IC50 ([4]; then 0.37 μM EdU for 4 hours, number of EdU incorporating parasites, read-out: IC50 value Amastigotes (EdU)): 0.21 ± 0.0018 µM
- IC50 ([4]; number of Hoechst identified parasites in infected cells, read-out: IC50 value Amastigotes (Hoechst)): 0.32 ± 0.024 µM
- SI (selectivity index to T. cruzi intracellular amastigotes in relation to HEK293 cells) ([3]; 48 hours exposure): > 143
- IC50 ([3]; read-out: IC50 value of positive assay control in the 2 and 4 hour exposure experiment, control exposure for 48 hours): 1 ± 0.101 µM
- IC50 [3, 5]: 1.72 ± 0.86 µM
- Emax [3, 6]: 100%
- IC50 ([3]; 48 hours exposure, well-established intracellular infection assay, mean ± SD, POSA value based on sub-optimal effect (Emax 75%), read-out: IC50 value Infected cells (Hoechst)): 0.8 ± 0.09 µM
- IC50 ([3]; 48 hours incubation, compound wash off, further 72 hours without compound, highest test concentration 183 μM, read-out: T. cruzi Wash off IC50 value): 1.41 ± 1.08 µM
- Emax ([3]; 48 hours incubation, wash off, further 72 hours without compound, read-out: T. cruzi Wash off relative Emax (in brackets) (converted)): 100%
- IC50 [3, 7]: 0.97 ± 0.026 µM
- Emax [3, 8]: 100%
- HEK293 IC50 value (HEK293 cells): NA (NA = ≤50% activity at the highest concentration tested and an IC50 value could not be determined)
- Host cell 3T3 IC50 value 48 h (3T3 cells): NA (NA = ≤50% activity at the highest concentration tested and an IC50 value could not be determined)
